Source: paper PMC9490041, “Determinants of affinity, specificity, and phase separation in a supramodule from Post-synaptic density protein 95” (iScience, 2022)
Read-outs that look alike come from different tables or passages of the source. Ends that are not written are not given here.

How the values were obtained:
Assay in all cases: FP displacement (competition) of FITC-15 AA CRIPT by library peptide, IC50 and Ki
PSG G335A (PSD-95) = conditions: for IC50: read-out: IC50 (µM), PSG G335A; for Ki: read-out: Ki (µM), PSG G335A
PSG G322A (PSD-95) = conditions: for IC50: read-out: IC50 (µM), PSG G322A; for Ki: read-out: Ki (µM), PSG G322A
PDZ3 (PSD-95) = PDZ3 (PSD-95) (Homo sapiens, UniProt P78352)
PDZ3 (PSD-95), sequence (P78352 313-393 limits assumed): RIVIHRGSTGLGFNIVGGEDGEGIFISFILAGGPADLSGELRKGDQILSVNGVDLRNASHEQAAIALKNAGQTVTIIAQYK

PSG (PSD-95) = conditions: for IC50: read-out: IC50 (µM), PSG
PSG G322A G335A (PSD-95) = conditions: for IC50: read-out: IC50 (µM), PSG G322A G335A; for Ki: read-out: Ki (µM), PSG G322A G335A
[1] = FP displacement of FITC-15 AA CRIPT probe by acetylated PSD library peptide
[2] = Ki (µM), PDZ3, FP displacement of FITC-15 AA CRIPT probe by acetylated PSD library peptide
[3] = Ki, FP displacement of 5 nM FITC-15 AA CRIPT by non-labeled acetylated peptide, room temperature, Ki from IC50, technical triplicates, PDZ3
[4] = read-out: Ki (µM), PSG, FP displacement of FITC-15 AA CRIPT probe by acetylated PSD library peptide
[5] = FP displacement of FITC-15 AA CRIPT probe by acetylated PSD library peptide (P-13 to P0 plus extra N-terminal Y)
[6] = FP displacement of FITC-15 AA CRIPT probe by PSD library peptide, protein PSG G335A
[7] = FP displacement of FITC-15 AA CRIPT probe by PSD library peptide, protein PSG G322A
[8] = Ki (µM), PDZ3, FP displacement of FITC-15 AA CRIPT probe by PSD library peptide, protein PDZ3
[9] = FP displacement of FITC-15 AA CRIPT probe by PSD library peptide, protein PSG (wild type)
[10] = read-out: Ki (µM), PSG, FP displacement of FITC-15 AA CRIPT probe by PSD library peptide, protein PSG (wild type)
[11] = FP displacement of FITC-15 AA CRIPT probe by PSD library peptide, protein PSG G322A G335A

Compound	IC50 (PSG G335A (PSD-95); [1])	Ki (PSG G335A (PSD-95); [1])	IC50 (PSG G322A (PSD-95); [1])	Ki (PSG G322A (PSD-95); [1])	IC50 (PDZ3 (PSD-95))	Ki (PDZ3 (PSD-95); [2])	Ki (PDZ3 (PSD-95); [3])	IC50 (PSG (PSD-95); [1])	Ki (PSG (PSD-95); [4])	IC50 (PSG G322A G335A (PSD-95); [5])	Ki (PSG G322A G335A (PSD-95); [1])	IC50 (PSG G335A (PSD-95); [6])	Ki (PSG G335A (PSD-95); [6])	IC50 (PSG G322A (PSD-95); [7])	Ki (PSG G322A (PSD-95); [7])	Ki (PDZ3 (PSD-95); [8])	IC50 (PSG (PSD-95); [9])	Ki (PSG (PSD-95); [10])	IC50 (PSG G322A G335A (PSD-95); [11])	Ki (PSG G322A G335A (PSD-95); [11])	other results
CC(=O)N[C@@H](Cc1ccc(O)cc1)C(=O)N[C@@H](CC(N)=O)C(=O)N[C@@H](CO)C(=O)N[C@H](C(=O)N[C@@H](CC(N)=O)C(=O)N[C@@H](CC(C)C)C(=O)N1CCC[C@H]1C(=O)N[C@@H](Cc1c[nH]cn1)C(=O)NCC(=O)N[C@@H](Cc1c[nH]cn1)C(=O)N[C@@H](CO)C(=O)N[C@H](C(=O)N[C@H](C(=O)N[C@@H](CCCNC(=N)N)C(=O)N[C@H](C(=O)O)C(C)C)[C@@H](C)O)[C@@H](C)O)[C@@H](C)O [NLGNX]	39 µM	14 µM	72 µM	31 µM	62 µM	40 µM	< 75 µM	184 µM	78 µM	43 µM	15 µM	–	–	–	–	–	–	–	–	–	–
CC[C@H](C)[C@H](NC(=O)[C@@H]1CCCN1C(=O)[C@H](Cc1ccc(O)cc1)NC(C)=O)C(=O)NCC(=O)NCC(=O)N[C@@H](CO)C(=O)N[C@@H](CC(C)C)C(=O)N[C@@H](CC(N)=O)C(=O)N[C@@H](CO)C(=O)N[C@H](C(=O)N[C@H](C(=O)N[C@@H](CC(=O)O)C(=O)N[C@@H](CO)C(=O)N[C@@H](C)C(=O)N[C@@H](CC(C)C)C(=O)O)[C@@H](C)O)[C@@H](C)O [RGS14]	233 µM	83 µM	133 µM	57 µM	67 µM	27 µM	< 75 µM	427 µM	181 µM	76 µM	26 µM	–	–	–	–	–	–	–	–	–	–
CC(=O)N[C@@H](Cc1ccc(O)cc1)C(=O)N[C@@H](CCC(=O)O)C(=O)N[C@@H](CCC(=O)O)C(=O)N[C@@H](CCC(=O)O)C(=O)N[C@@H](CC(C)C)C(=O)N[C@@H](CCC(N)=O)C(=O)N[C@@H](CC(=O)O)C(=O)N[C@@H](CO)C(=O)N[C@@H](CCCNC(=N)N)C(=O)N[C@H](C(=O)N[C@@H](Cc1ccc(O)cc1)C(=O)N[C@H](C(=O)N[C@@H](CO)C(=O)N[C@@H](CO)C(=O)N[C@@H](CC(C)C)C(=O)O)C(C)C)C(C)C [CAC1C]	–	–	–	–	–	–	–	–	–	–	–	90 µM	32 µM	99 µM	43 µM	449 µM	200 µM	105 µM	82 µM	28 µM	–
CC[C@H](C)[C@H](NC(=O)[C@H](CO)NC(=O)[C@@H]1CCCN1C(=O)[C@H](CCSC)NC(=O)[C@H](CCCCN)NC(=O)[C@H](CCCCN)NC(=O)[C@H](Cc1ccc(O)cc1)NC(=O)[C@@H](NC(=O)[C@H](CCCNC(=N)N)NC(=O)[C@H](CCCNC(=N)N)NC(=O)[C@H](Cc1ccc(O)cc1)NC(C)=O)C(C)C)C(=O)N[C@@H](CCC(=O)O)C(=O)N[C@@H](CO)C(=O)N[C@@H](CC(=O)O)C(=O)N[C@H](C(=O)O)C(C)C [NMDE1]	–	–	–	–	–	–	–	–	–	–	–	267 µM	95 µM	153 µM	66 µM	172 µM	463 µM	243 µM	156 µM	54 µM	–

Continued, in another order:

IC50 (PSG G335A (PSD-95); [1])	Ki (PSG G335A (PSD-95); [1])	IC50 (PSG G322A (PSD-95); [1])	Ki (PSG G322A (PSD-95); [1])	IC50 (PDZ3 (PSD-95))	Ki (PDZ3 (PSD-95); [2])	Ki (PDZ3 (PSD-95); [3])	IC50 (PSG (PSD-95); [1])	Ki (PSG (PSD-95); [4])	IC50 (PSG G322A G335A (PSD-95); [5])	Ki (PSG G322A G335A (PSD-95); [1])	IC50 (PSG G335A (PSD-95); [6])	Ki (PSG G335A (PSD-95); [6])	IC50 (PSG G322A (PSD-95); [7])	Ki (PSG G322A (PSD-95); [7])	Ki (PDZ3 (PSD-95); [8])	IC50 (PSG (PSD-95); [9])	Ki (PSG (PSD-95); [10])	IC50 (PSG G322A G335A (PSD-95); [11])	Ki (PSG G322A G335A (PSD-95); [11])	Compound	other results
24 µM	8.45 µM	21 µM	9 µM	58 µM	23 µM	< 75 µM	67 µM	28 µM	12 µM	4 µM	–	–	–	–	–	–	–	–	–	CC[C@H](C)[C@H](NC(=O)[C@H](Cc1ccccc1)NC(=O)[C@H](CO)NC(=O)[C@H](CCCNC(=N)N)NC(=O)[C@H](CCCCN)NC(=O)[C@@H]1CCCN1C(=O)[C@H](CCCCN)NC(=O)[C@H](C)NC(=O)[C@H](C)NC(=O)[C@@H](NC(=O)[C@H](Cc1ccc(O)cc1)NC(C)=O)[C@@H](C)O)C(=O)N[C@@H](CCC(=O)O)C(=O)N[C@@H](CO)C(=O)N[C@@H](CC(N)=O)C(=O)N[C@H](C(=O)O)C(C)C [TANC1]	Ki (PSG (PSD-95); FP displacement of 5 nM FITC-15 AA CRIPT by non-labeled acetylated peptide, room temperature, Ki from IC50, technical triplicates, PSG): < 75 µM
–	–	834 µM	362 µM	–	548 µM	–	2160 µM	923 µM	1320 µM	457 µM	–	–	–	–	–	–	–	–	–	Ac-YQARRGKKKSGSLVL [RHOA]	–
